The source of these data is patent US11833139B2 (priority 2019, dated 2023).

Each structure is given as a SMILES string. Values after ≈ are worked out from the molar mass of the structure shown. Like-named read-outs stand apart in the source and are kept apart here.

In one test the test system is A. baumannii HUMC1. Kind of test: MIC by broth microdilution (CLSI), carbapenem-resistant clinical isolate HUMC1. Type of test: cell-based, Acinetobacter baumannii. The settings on record: Acinetobacter baumannii, read-out: MIC. The procedure:
(§1) Two A. baumannii isolates were used in this example: HUMC1 (BV374) (Spellberg/Luna Laboratory, University of Southern California, Los Angeles, Calif.) and UNT091-1 (BV378) (UNT Health Science Center, Fort Worth, Tex.). The HUMC1 isolate is a hyper-virulent drug-resistant clinical strain isolated from a blood-stream infection. […] The isolates were stored at −80° C. as 20% (v/v) glycerol cultures.
(§2) MICs were determined by the broth microdilution method following the guidelines of the Clinical Laboratory Standards Institute (CLSI) using RPMI supplemented with […] cationic-adjusted Muller Hinton broth (CA-MHB) as assay medium. To prepare the bacterial inocula, 3-5 colonies of bacterial strains from over-night growth on ChromAgar orientation plates (CHROMagar Cat. No. RT412) were suspended in 5 mL saline. The turbidity of the bacterial suspension was adjusted to 0.5 McFarland units (equal to an optical density at 610 nm (OD610) to 0.08-0.1). This suspension was diluted 200-fold in RPMI supplemented with 10% (v/v) FCS to reach a final concentration of […] colony forming units (CFU)/mL and was used to inoculate the microtiter plates.
(§3) Serial 2-fold dilutions of the antibiotics were prepared in a separate 96-well plate polypropylene U-bottom plate (Ratiolab Cat. No. 6018111) in RPMI supplemented with 10% (v/v) FCS at 10-fold of the final test concentrations and 10 μl of the dilutions were transferred to new 96-well polystyrene U-bottom microtiter plates with a parafilm plate cover.
(§4) The plates were then inoculated with 90 μL per well of the prepared bacterial suspensions in using a multichannel pipette (Eppendorf), with the first column containing 4 wells each for growth control (no antibiotic). […] The MIC was recorded as the lowest concentration of the compound that inhibited bacterial growth by visual inspection. MICs were determined at least in duplicates and in the case of variations, the higher values are provided.
(In broth dilution the organism is exposed to a series of concentrations in liquid medium.)

Test [1] relates to A. baumannii UNT091. Nature of the test: MIC by broth microdilution (CLSI), carbapenem-resistant clinical isolate UNT091. The settings on record: Acinetobacter baumannii, read-out: MIC. Type of test: cell-based, Acinetobacter baumannii. On the procedure:
as §1, §2, §3, §4

The test system of the next test is A. baumannii ACC00445. Nature of the test: Neutropenic sepsis mouse model (CD-1 mice, IP infection). The settings on record: IV at 1 h and 5 h post-infection, 1 mg/kg. Type of test: in vivo. An excerpt: The CD-1 mice were IP infected with A. baumannii ACC00445 strain in the presence of […].
The subject of test [2] is A. baumannii UNT091. Kind of test: Neutropenic lung infection mouse model (CD-1 mice, intranasal infection). Type of test: in vivo. The settings on record: UNT091, IV at 2 h post-infection, 24 hours of treatment, doses of <0.5 mg/kg. On the procedure:
(§5) After 24 hours of treatment the mice were sacrificed and colony forming units in the lungs were measured.

A further test deals with A. baumannii UNT093. The description is as above. Type of test: in vivo. The settings on record: UNT093, IV at 2 h post-infection, 24 hours of treatment, doses of <0.5 mg/kg. The procedure:
as §5

The next test deals with A. baumannii. Kind of test: Dose fractionation in a neutropenic mouse model of infection. Type of test: in vivo. The settings on record: IV q24 h, q12 h or q6 h. The text has this: FIG. 5 summarizes the results of dose fractionation experiments in a neutropenic mouse model of infection.
The test system of test [3] is A. baumannii ATCC-17978 expressing FhuE V38P. Kind of test: Complementation assay, plasmid mediated expression of FhuE variants in CA-MHB. The settings on record: ATCC-17978 host, 1 mM IPTG. In kind it is cell-based. An excerpt:
See, Cadieux, N., Bradbeer, C. & Kadner, R. J. Sequence changes in the ton box region of BtuB affect its transport activities and interaction with TonB protein. J. Bacteriol. 182, 5954-5961 (2000); Funahashi, T. et al. Identification and characterization of an outer membrane receptor gene in Acinetobacter baumannii required for utilization of desferricoprogen, rhodotorulic acid, and desferrioxamine B as xenosiderophores. Biol. Pharm. Bull. 35, 753-760 (2012); the content of each of which is incorporated herein by reference.

As a reminder, the MIC is the smallest concentration in the dilution series that meets the test's criterion for growth inhibition. For the compound `CO[C@H]1/C=C/O[C@@]2(C)Oc3c(C)c(O)c4c(c3C2=O)C2=NC3(CCN(CC(C)C)CC3)NC2=C(NC(=O)/C(C)=C\C=C\[C@H](C)[C@H](O)[C@@H](C)[C@@H](O)[C@@H](C)[C@H](OC(C)=O)[C@@H]1C)C4=O` [rifabutin], the MIC in the test with A. baumannii HUMC1 (HUMC1, HUMC1, RPMI plus 10% FCS (Table 1)) was 2 ng/mL; in the test on A. baumannii HUMC1 (HUMC1, HUMC1 parental strain, RPMI + 10% FCS (Table 2)), 2 ng/mL; in the test with A. baumannii UNT091 [1] (UNT091, UNT091, CA-MHB (Table 1)), 8000 ng/mL (≈ 9.44 µM); with A. baumannii UNT091 [1] (UNT091, UNT091, RPMI plus 10% FCS (Table 1)) it was 2 ng/mL; in the test on A. baumannii UNT091 [1] (UNT091, UNT091 parental strain, RPMI + 10% FCS (Table 2)), 2 ng/mL. Moreover, in the test with A. baumannii ACC00445, the protection against sepsis entry is reported as “protects against sepsis”. For the same compound, the “effect on colony forming units in the lungs” value with A. baumannii UNT091 [2] and in the test on A. baumannii UNT093 was “potent effect” throughout. Moreover, the dose fractionation result with A. baumannii was “clear dose response relationship”. Moreover, the “restoration of potent activity by FhuE V38P expression compared to wildtype FhuE” value in test [3] was “not able to restore rifabutin potent activity”.
